In patent publication US5281628A, “9-amino-7-(substituted)-6-demethyl-6-deoxytetracyclines” (American Cyanamid Company, priority 1991, dated 1994):
Where a name gives a salt, the structure may show the parent alone.

How the values were obtained:
Type in all cases: cell-based
E. coli ATCC 25922 = test: MIC, microtiter broth dilution; conditions: Escherichia coli, ATCC25922, 18 h
Experimental: (§1) The minimum inhibitory concentration (MIC), the lowest concentration of the antibiotic which inhibits growth of the test organism, is determined by the microtiter broth dilution method using 0.1 ml Muller-Hinton II broth (Baltimore Biological Laboratories) per well. A suitable oxygen scavenger (i.e., cysteine or dithiothreitol) is added to the assay medium for the testing of compounds according to Formula I because of the sensitivity of those compounds to oxidation. An inoculum level of 1-5×10^5 CFU/ml and a range of antibiotic concentrations (32 0.004 μg/ml) are used.

[1] = system: E. coli UBMS 89-2 (tetracycline-sensitive); test: MIC, microtiter broth dilution; conditions: Escherichia coli, 18 h
Experimental: as §1

[2] = system: E. coli UBMS 90-5 (tetracycline-sensitive); test: MIC, microtiter broth dilution; conditions: Escherichia coli, 18 h
Experimental: as §1

E. faecalis ATCC 29212 = test: MIC, microtiter broth dilution; conditions: Enterococcus faecalis, ATCC29212, 18 h
Experimental: as §1

M. morganii NEMC 87-119 = test: MIC, microtiter broth dilution; conditions: Morganella morganii, NEMC87119, 18 h
Experimental: as §1

P. aeruginosa ATCC 27853 = test: MIC, microtiter broth dilution; conditions: Pseudomonas aeruginosa, ATCC27853, 18 h
Experimental: as §1

[3] = system: S. aureus IVES 1983 (methicillin-resistant); test: MIC, microtiter broth dilution; conditions: Staphylococcus aureus, 18 h
Experimental: as §1

[4] = system: S. aureus IVES 2943 (methicillin-resistant); test: MIC, microtiter broth dilution; conditions: Staphylococcus aureus, 18 h
Experimental: as §1

[5] = system: S. aureus UBMS 90-3 (tetracycline-sensitive); test: MIC, microtiter broth dilution; conditions: Staphylococcus aureus, 18 h
Experimental: as §1

[6] = system: S. haemolyticus AVAH 88-3; test: MIC, microtiter broth dilution; conditions: Staphylococcus haemolyticus, AVAH883, 18 h; S. haemolyticus AVAH 88-3; in the presence of cysteine (0.05%); read-out: MIC
Experimental: as §1

S. marcescens FPOR 87-33 = test: MIC, microtiter broth dilution; conditions: Serratia marcescens, FPOR8733, 18 h
Experimental: as §1

[7] = system: tetracycline sensitive and resistant Gram-positive and Gram-negative bacteria; test: In vitro antibacterial evaluation, statements on the whole panel
Experimental: as §1

[8] = system: E. coli UBMS 88-2 (tetracycline-sensitive); test: MIC, microtiter broth dilution; conditions: Escherichia coli, 18 h, no cysteine stated
Experimental: as §1

E. coli UBMS 90-4 (tetM) = test: MIC, microtiter broth dilution; conditions: Escherichia coli, 18 h
Experimental: as §1

S. aureus ATCC 29213 = test: MIC, microtiter broth dilution; conditions: Staphylococcus aureus, ATCC29213, 18 h, no cysteine stated
Experimental: as §1

[9] = system: S. aureus UBMS 88-4 (tetracycline-sensitive); test: MIC, microtiter broth dilution; conditions: Staphylococcus aureus, 18 h, no cysteine stated
Experimental: as §1

[10] = system: X. maltophilia FPOR 87-210; test: MIC, microtiter broth dilution; conditions: Stenotrophomonas maltophilia, FPOR87210, 18 h, no cysteine stated
Experimental: as §1

E. coli UBMS 88-1 (tetB) = test: microbe, parasite or virus in culture; conditions: Escherichia coli, 18 h
Experimental: as §1

[11] = system: S. aureus UBMS 88-5 (tetM); test: microbe, parasite or virus in culture; conditions: Staphylococcus aureus, 18 h
Experimental: as §1

[12] = system: S. aureus UBMS 88-7 (tetK); test: microbe, parasite or virus in culture; conditions: Staphylococcus aureus, 18 h
Experimental: as §1

[13] = in the presence of cysteine (0.05%)

CCN(CC)c1cc(N)c(O)c2c1C[C@H]1C[C@H]3[C@H](N(C)C)C(O)=C(C(N)=O)C(=O)[C@@]3(O)C(O)=C1C2=O [C, 9-Amino-7-(diethylamino)-6-demethyl-6-deoxytetracycline sulfate]
MIC (E. coli ATCC 25922; [13]): 0.5 µg/mL | MIC [1, 13]: 0.5 µg/mL | MIC [2, 13]: 1 µg/mL | MIC (E. faecalis ATCC 29212; [13]): 0.12 µg/mL | MIC (M. morganii NEMC 87-119; [13]): 2 µg/mL | MIC (P. aeruginosa ATCC 27853; [13]): 8 µg/mL | MIC [3, 13]: 0.25 µg/mL | MIC [4, 13]: 0.25 µg/mL | MIC [5, 13]: 0.03 µg/mL | MIC [6]: 0.12 µg/mL | MIC (S. marcescens FPOR 87-33; [13]): 4 µg/mL | antibacterial activity versus D ([7]; comparator D): enhancement of antibacterial activity

CCN(CC)c1ccc(O)c2c1C[C@H]1C[C@H]3[C@H](N(C)C)C(O)=C(C(N)=O)C(=O)[C@@]3(O)C(O)=C1C2=O [D, 7-(Diethylamino)-6-demethyl-6-deoxytetracycline sulfate]
MIC (E. coli ATCC 25922; no cysteine stated): 1 µg/mL | MIC [8]: 2 µg/mL | MIC ([1]; no cysteine stated): 4 µg/mL | MIC (E. coli UBMS 90-4 (tetM)): > 32 µg/mL | MIC ([2]; no cysteine stated): 2 µg/mL | MIC (E. faecalis ATCC 29212; no cysteine stated): 8 µg/mL | MIC (M. morganii NEMC 87-119; no cysteine stated): 32 µg/mL | MIC (P. aeruginosa ATCC 27853; no cysteine stated): 32 µg/mL | MIC (S. aureus ATCC 29213): < 0.015 µg/mL | MIC ([3]; no cysteine stated): 8 µg/mL | MIC ([4]; no cysteine stated): 8 µg/mL | MIC [9]: 0.03 µg/mL | MIC ([5]; no cysteine stated): 0.03 µg/mL | MIC (S. marcescens FPOR 87-33; no cysteine stated): 32 µg/mL | MIC [10]: 0.25 µg/mL | MIC (E. coli UBMS 88-1 (tetB)): 32 µg/mL | MIC [11]: 16 µg/mL | MIC [12]: 0.12 µg/mL | Antibacterial potency in the presence of cysteine ([7]; in the presence of cysteine versus without): not enhanced
